{"source": "patent US20250296971A1", "about": "“GASTRIC INHIBITORY PEPTIDE RECEPTOR LIGANDS” (priority 2021, published 2025)", "note": "*1 amine or outer side, *2 acyl side, *3 side chain or, on linkers, in order; H or OH if unused. Where a SMILES comes first, the peptide text is derived from it. Bridges are numbered along the chain shown (N, C = ends). [ ]: non-standard residue; d: D form. The star is where a group is joined. DOTA = O=C(O)CN1CCN(CC(=O)O)CCN(CC(=O)*)CCN(CC(=O)O)CC1; Maleimide(3,4-diyl) = O=C1NC(=O)C([*:2])=C1[*:1]; Trp(5-Cl) = N[C@@H](Cc1c[nH]c2ccc(Cl)cc12)C(=O)O; 1Nal = N[C@@H](Cc1cccc2ccccc12)C(=O)O; mXylylene = c1cc(C[*:1])cc(C[*:2])c1; X6 = c1cc(CSCCN[*:2])nc(C[*:1])c1; Hyp = O=C(O)[C@@H]1C[C@@H](O)CN1; X1 = O=C(CN1CCC(N[*:1])CC1)[*:2]; Suc = O=C(CCC(=O)[*:2])[*:1]; hLeu = CC(C)CC[C@H](N)C(=O)O; hCys = N[C@@H](CCS)C(=O)O; Api = NC1(C(=O)O)CCNCC1; Thp = NC1(C(=O)O)CCOCC1; Dap = NC[C@H](N)C(=O)O; Aib = CC(C)(N)C(=O)O", "data": [{"target": "T1, GIPR (CHO-K1-hGIPR cells) (Homo sapiens, UniProt P48546)", "T1 construct": "host or cells: CHO-K1", "T1 sequence (P48546 22-466)": "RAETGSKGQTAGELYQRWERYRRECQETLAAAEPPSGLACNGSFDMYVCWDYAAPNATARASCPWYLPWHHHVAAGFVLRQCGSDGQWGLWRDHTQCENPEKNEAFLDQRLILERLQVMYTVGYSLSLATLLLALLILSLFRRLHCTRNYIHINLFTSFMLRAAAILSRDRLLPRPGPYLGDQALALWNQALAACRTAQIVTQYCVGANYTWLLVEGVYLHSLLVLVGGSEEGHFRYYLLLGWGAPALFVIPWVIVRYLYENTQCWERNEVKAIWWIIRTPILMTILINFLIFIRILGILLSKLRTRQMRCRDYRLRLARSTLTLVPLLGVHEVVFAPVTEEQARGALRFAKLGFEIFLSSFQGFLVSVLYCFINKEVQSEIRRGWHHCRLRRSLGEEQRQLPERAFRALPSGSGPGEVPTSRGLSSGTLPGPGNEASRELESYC", "test": "FACS binding assay", "settings": "competition with 20 nM GIP-057, 4° C. for 1 hour, read-out: pIC50 Category (converted)", "procedure,_shortened": "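CHO-K1 cells stably expressing human GIPR were detached with Accutase, suspended at 500.000 cells per mL in PBS with 1% FCS, and washed ice-cold. Bound peptide was detected with 1 μg/mL APC-streptavidin for 30 min on ice.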", "units": {"IC50": "nM"}, "values": [{"smiles": "CC[C@H](C)[C@@H]1NC(=O)[C@H](CC(C)C)NC(=O)C(C)(C)NC(=O)[C@@H](NC(=O)[C@H](CNC(C)=O)NC(=O)[C@H](CCC(=O)O)NC(=O)[C@@H]2CCCN2C(=O)[C@H](Cc2cccc3ccccc23)NC(=O)[C@H](Cc2c[nH]c3ccccc23)NC(=O)[C@H](CC(=O)O)NC(C)=O)CSCc2cccc(c2)CSC[C@@H](C(N)=O)NC1=O", "note": "[GIP-348, Ac-Asp-Trp-1Ni-Pro-Glu-Dap(Ac)-[Cys(3MeBn)-Aib-Leu-Ile-Cys]-NH2] (Ac-DW[1Nal]PE[Dap](Ac)C[Aib]LIC-NH2; linker 7-11 via mXylylene)", "IC50": "> 1000"}, {"smiles": "CC[C@H](C)[C@@H]1NC(=O)[C@H](CC(C)C)NC(=O)C2(CCN(C(=O)CN3CCN(CC(=O)O)CCN(CC(=O)O)CCN(CC(=O)O)CC3)CC2)NC(=O)[C@@H](NC(=O)[C@H](CCC(C)C)NC(=O)[C@H](CCC(=O)O)NC(=O)[C@@H]2CCCN2C(=O)[C@H](Cc2cccc3ccccc23)NC(=O)[C@H](Cc2c[nH]c3ccccc23)NC(=O)[C@H](CC(=O)O)NC(C)=O)CSCc2cccc(c2)CSC[C@@H](C(N)=O)NC1=O", "note": "[GIP-400, Ac-Asp-Trp-1Ni-Pro-Glu-Hle-[Cys(3MeBn)-Apc(DOTA)-Leu-Ile-Cys]-NH2] (Ac-DW[1Nal]PE[hLeu]C[Api](DOTA)LIC-NH2; linker 7-11 via mXylylene)", "IC50": "100 to 794"}, {"smiles": "CC[C@H](C)[C@@H]1NC(=O)[C@H](CC(C)C)NC(=O)C2(CCOCC2)NC(=O)[C@@H](NC(=O)[C@@H](CC(C)C)NC(=O)[C@H](CCC(=O)O)NC(=O)[C@@H]2C[C@@H](O)CN2C(=O)[C@H](Cc2c[nH]c3ccc(Cl)cc23)NC(=O)CNC(=O)[C@H](CC(=O)O)NC(=O)CN2CCC(NC(=O)CN3CCN(CC(=O)O)CCN(CC(=O)O)CCN(CC(=O)O)CC3)CC2)CSCc2cccc(n2)CSCCNC1=O", "note": "[GIP-284, DOTA-APAc-Asp-Gly-5Clw-Hyp-Glu-leu-[Cys(2Lut)-Thp-Leu-Ile-AET]] ({DOTA}-[X1]DG[Trp(5-Cl)][Hyp]E[dL]C[Thp]LI; linker 8-C via X6)", "IC50": "100 to 794"}, {"smiles": "CC[C@H](C)[C@@H]1NC(=O)[C@H](CC(C)C)NC(=O)C(C)(C)NC(=O)[C@@H](NC(=O)[C@@H](CC(C)C)NC(=O)[C@H](CCC(=O)O)NC(=O)[C@@H]2CCCN2C(=O)[C@H](Cc2c[nH]c3ccccc23)NC(=O)[C@H](Cc2c[nH]c3ccccc23)NC(=O)CCC(=O)O)CSCc2cccc(c2)CSC[C@@H](C(N)=O)NC1=O", "note": "[GIP-258, HO-Succinyl-Trp-Trp-Pro-Glu-leu-[Cys(3MeBn)-Aib-Leu-Ile-Cys]-NH2] (Suc-WWPE[dL]C[Aib]LIC-NH2; linker 6-10 via mXylylene)", "IC50": "10 to 79.4"}, {"smiles": "CC[C@H](C)[C@@H]1NC(=O)[C@H](CC(C)C)NC(=O)[C@H](C)NC(=O)[C@@H](NC(=O)[C@H](CC(C)C)NC(=O)[C@H](CCC(=O)O)NC(=O)[C@@H]2CCCN2C(=O)[C@H](Cc2c[nH]c3ccccc23)NC(=O)[C@H](C)NC(=O)[C@H](CC(=O)O)NC(=O)[C@H](Cc2ccc(O)cc2)NC(=O)[C@@H](N)CCSC)CSCc2cccc(c2)CSC[C@@H](C(N)=O)NC1=O", "note": "[GIP-333] (H-MYDAWPELCALIC-NH2; linker 9-13 via mXylylene)", "IC50": "> 1000"}, {"smiles": "CC[C@H](C)[C@@H]1NC(=O)[C@H](CC(C)C)NC(=O)C2(CCOCC2)NC(=O)[C@@H](NC(=O)[C@@H](CC(C)C)NC(=O)[C@H](CCC(=O)O)NC(=O)[C@@H]2C[C@@H](O)CN2C(=O)[C@H](Cc2c[nH]c3ccc(Cl)cc23)NC(=O)[C@H](Cc2c[nH]c3ccccc23)NC(=O)[C@H](CC(=O)O)NC(C)=O)CSC2=C(SCC[C@@H](C(N)=O)NC1=O)C(=O)NC2=O", "note": "[GIP-361, Ac-Asp-Trp-5Clw-Hyp-Glu-leu-[Cys(mli)-Thp-Leu-Ile-Hcy]-NH2] (Ac-DW[Trp(5-Cl)][Hyp]E[dL]C[Thp]LI[hCys]-NH2; linker 7-11 via Maleimide(3,4-diyl))", "IC50": "< 10"}]}]}
